Measured values as given in patent US20260285850A1, “SUBSTITUTED OXAZOLIDINONES AND IMIDAZOLINONES AS HERBICIDES” (FMC CORPORATION, priority 2023, published 2026).

How the values were obtained:
Format in all cases: in vivo
[1] = tested on: barnyardgrass (Echinochloa crus-galli); assay: Test A preemergence soil spray, visual injury rating 0-100; conditions: 10 days, 0 = no effect, 100 = complete control
Outline: (§1)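 Scale 0–100 (no effect to complete control), visual, versus untreated controls, read 10 days after application. Application: preemergence directed spray onto seeded loam–sand soil, or postemergence to young plants; formulation in non-phytotoxic solvent with surfactant.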

[2] = tested on: blackgrass (Alopecurus myosuroides); assay: as above; conditions: 10 days, 0 = no effect, 100 = complete control
Outline: as §1

[3] = tested on: corn (Zea mays); assay: as above; conditions: 10 days, 0 = no effect, 100 = complete control
Outline: as §1

[4] = tested on: green foxtail (Setaria viridis); assay: as above; conditions: 10 days, 0 = no effect, 100 = complete control
Outline: as §1

[5] = tested on: kochia (Bassia scoparia); assay: as above; conditions: 10 days, 0 = no effect, 100 = complete control
Outline: as §1

[6] = tested on: oat, wild (wild oat, Avena fatua); assay: as above; conditions: 10 days, 0 = no effect, 100 = complete control
Outline: as §1

[7] = tested on: palmer (palmer amaranth, palmer pigweed, Amaranthus palmeri); assay: as above; conditions: 10 days, 0 = no effect, 100 = complete control
Outline: as §1

[8] = tested on: ragweed (common ragweed, Ambrosia artemisiifolia); assay: as above; conditions: 10 days, 0 = no effect, 100 = complete control
Outline: as §1

[9] = tested on: ryegrass, Italian (italian ryegrass, Lolium multiflorum); assay: as above; conditions: 10 days, 0 = no effect, 100 = complete control
Outline: as §1

[10] = tested on: soybean (Glycine max); assay: as above; conditions: 10 days, 0 = no effect, 100 = complete control
Outline: as §1

[11] = tested on: wheat (Triticum aestivum); assay: as above; conditions: 10 days, 0 = no effect, 100 = complete control
Outline: as §1

[12] = tested on: barnyardgrass (Echinochloa crus-galli); assay: Test A postemergence application, visual injury rating 0-100; conditions: Postemergence, 10 days, 0 is no effect, 100 is complete control
Outline: as §1

[13] = tested on: blackgrass (Alopecurus myosuroides); assay: as above; conditions: Postemergence, 10 days, 0 is no effect, 100 is complete control
Outline: as §1

[14] = tested on: corn (Zea mays); assay: as above; conditions: Postemergence, 10 days, 0 is no effect, 100 is complete control
Outline: as §1

[15] = tested on: galium (catchweed bedstraw, Galium aparine); assay: as above; conditions: Postemergence, 10 days, 0 is no effect, 100 is complete control
Outline: as §1

[16] = tested on: green foxtail (Setaria viridis); assay: as above; conditions: Postemergence, 10 days, 0 is no effect, 100 is complete control
Outline: as §1

[17] = tested on: horseweed (Erigeron canadensis); assay: as above; conditions: Postemergence, 10 days, 0 is no effect, 100 is complete control
Outline: as §1

[18] = tested on: kochia (Bassia scoparia); assay: as above; conditions: Postemergence, 10 days, 0 is no effect, 100 is complete control
Outline: as §1

[19] = tested on: oat, wild (wild oat, Avena fatua); assay: as above; conditions: Postemergence, 10 days, 0 is no effect, 100 is complete control
Outline: as §1

[20] = tested on: palmer (palmer amaranth, palmer pigweed, Amaranthus palmeri); assay: as above; conditions: Postemergence, 10 days, 0 is no effect, 100 is complete control
Outline: as §1

[21] = tested on: ragweed (common ragweed, Ambrosia artemisiifolia); assay: as above; conditions: Postemergence, 10 days, 0 is no effect, 100 is complete control
Outline: as §1

[22] = tested on: ryegrass, Italian (italian ryegrass, Lolium multiflorum); assay: as above; conditions: Postemergence, 10 days, 0 is no effect, 100 is complete control
Outline: as §1

[23] = tested on: soybean (Glycine max); assay: as above; conditions: Postemergence, 10 days, 0 is no effect, 100 is complete control
Outline: as §1

[24] = tested on: wheat (Triticum aestivum); assay: as above; conditions: Postemergence, 10 days, 0 is no effect, 100 is complete control
Outline: as §1

[25] = tested on: barnyardgrass (Echinochloa crusgalli); assay: Test B flooded paddy test, visual plant response rating 0-100; conditions: 250 g ai/ha, Flood, applied to paddy water, evaluated after 13 days
Outline: (§2)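 Greenhouse, 13 d. Seedlings at 2-leaf stage, pots flooded to 3 cm, compound delivered into floodwater, water level held constant. Evaluated visually relative to controls.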

[26] = tested on: ducksalad (Heteranthera limosa); assay: as above; conditions: 250 g ai/ha, Flood, applied to paddy water, evaluated after 13 days
Outline: as §2

[27] = tested on: rice (Oryza sativa); assay: as above; conditions: 250 g ai/ha, Flood, applied to paddy water, evaluated after 13 days
Outline: as §2

[28] = tested on: sedge, umbrella (small-flower umbrella sedge, Cyperus difformis); assay: as above; conditions: 250 g ai/ha, Flood, applied to paddy water, evaluated after 13 days
Outline: as §2

CC1(C(=O)NC2C=CC(C(=O)OCCS(C)(=O)=O)C2)CN(c2cc(Cl)cc(Cl)c2)C(=O)O1 (stereo not shown) [Compound 46]
Barnyardgrass plant response rating (0 to 100 scale) ([1]; 125 g ai/ha): 80
Barnyardgrass plant response rating (0 to 100 scale) ([1]; 500 g ai/ha): 100
Blackgrass plant response rating (0 to 100 scale) ([2]; 125 g ai/ha): 80
Blackgrass plant response rating (0 to 100 scale) ([2]; 500 g ai/ha): 90
Corn plant response rating (0 to 100 scale) ([3]; 125 g ai/ha): 0
Corn plant response rating (0 to 100 scale) ([3]; 500 g ai/ha): 90
Foxtail, Green plant response rating (0 to 100 scale) ([4]; 125 g ai/ha): 0
Foxtail, Green plant response rating (0 to 100 scale) ([4]; 500 g ai/ha): 0
Kochia plant response rating (0 to 100 scale) ([5]; 125 g ai/ha): 60
Kochia plant response rating (0 to 100 scale) ([5]; 500 g ai/ha): 90
Oat, Wild plant response rating (0 to 100 scale) ([6]; 125 g ai/ha): 70
Oat, Wild plant response rating (0 to 100 scale) ([6]; 500 g ai/ha): 90
Amaranth, Palmer plant response rating (0 to 100 scale) ([7]; 125 g ai/ha): 80
Amaranth, Palmer plant response rating (0 to 100 scale) ([7]; 500 g ai/ha): 100
Ragweed plant response rating (0 to 100 scale) ([8]; 125 g ai/ha): 30
Ragweed plant response rating (0 to 100 scale) ([8]; 500 g ai/ha): 70
Ryegrass, Italian plant response rating (0 to 100 scale) ([9]; 125 g ai/ha): 80
Ryegrass, Italian plant response rating (0 to 100 scale) ([9]; 500 g ai/ha): 90
Soybean plant response rating (0 to 100 scale) ([10]; 125 g ai/ha): 10
Soybean plant response rating (0 to 100 scale) ([10]; 500 g ai/ha): 60
Wheat plant response rating (0 to 100 scale) ([11]; 125 g ai/ha): 70
Wheat plant response rating (0 to 100 scale) ([11]; 500 g ai/ha): 90
Barnyardgrass plant response rating (0 to 100 scale) ([12]; 125 g ai/ha): 100
Barnyardgrass plant response rating (0 to 100 scale) ([12]; 500 g ai/ha): 100
Blackgrass plant response rating (0 to 100 scale) ([13]; 125 g ai/ha): 100
Blackgrass plant response rating (0 to 100 scale) ([13]; 500 g ai/ha): 100
Corn plant response rating (0 to 100 scale) ([14]; 125 g ai/ha): 100
Corn plant response rating (0 to 100 scale) ([14]; 500 g ai/ha): 100
Galium plant response rating (0 to 100 scale) ([15]; 125 g ai/ha): 80
Galium plant response rating (0 to 100 scale) ([15]; 500 g ai/ha): 70
Foxtail, Green plant response rating (0 to 100 scale) ([16]; 125 g ai/ha): 80
Foxtail, Green plant response rating (0 to 100 scale) ([16]; 500 g ai/ha): 90
Horseweed plant response rating (0 to 100 scale) ([17]; 125 g ai/ha): 80
Horseweed plant response rating (0 to 100 scale) ([17]; 500 g ai/ha): 80
Kochia plant response rating (0 to 100 scale) ([18]; 125 g ai/ha): 80
Kochia plant response rating (0 to 100 scale) ([18]; 500 g ai/ha): 80
Oat, Wild plant response rating (0 to 100 scale) ([19]; 125 g ai/ha): 80
Oat, Wild plant response rating (0 to 100 scale) ([19]; 500 g ai/ha): 90
Amaranth, Palmer / Pigweed, Palmer plant response rating (0 to 100 scale) ([20]; 125 g ai/ha): 90
Amaranth, Palmer / Pigweed, Palmer plant response rating (0 to 100 scale) ([20]; 500 g ai/ha): 90
Ragweed plant response rating (0 to 100 scale) ([21]; 125 g ai/ha): 60
Ragweed plant response rating (0 to 100 scale) ([21]; 500 g ai/ha): 80
Ryegrass, Italian plant response rating (0 to 100 scale) ([22]; 125 g ai/ha): 70
Ryegrass, Italian plant response rating (0 to 100 scale) ([22]; 500 g ai/ha): 70
Soybean plant response rating (0 to 100 scale) ([23]; 125 g ai/ha): 80
Soybean plant response rating (0 to 100 scale) ([23]; 500 g ai/ha): 90
Wheat plant response rating (0 to 100 scale) ([24]; 125 g ai/ha): 90
Wheat plant response rating (0 to 100 scale) ([24]; 500 g ai/ha): 90
Plant response rating, Barnyardgrass (0 to 100 scale, 0 is no effect and 100 is complete control) [25]: 70
Plant response rating, Ducksalad (0 to 100 scale, 0 is no effect and 100 is complete control) [26]: 90
Plant response rating, Rice (0 to 100 scale, 0 is no effect and 100 is complete control) [27]: 10
Plant response rating, Sedge, Umbrella (0 to 100 scale, 0 is no effect and 100 is complete control) [28]: 95
